# Test results published in patent publication US20260250320A1, “LIPIDATED PEPTIDE INHIBITORS OF INTERLEUKIN-23 RECEPTOR” (Janssen Pharmaceutica NV, priority 2023, published 2026).
# *1 amine or outer side, *2 acyl side, *3 side chain or, on linkers, in order; H or OH if unused. Where a SMILES comes first, the peptide text is derived from it. Bridges are numbered along the chain shown (N, C = ends). Roman numbers before positions name the chains, in order. Side-chain parts run from the residue outwards. [ ]: non-standard residue; d: D form. The star is where a group is joined. X19 = CC(C)(S[*:2])[C@H](N[*:3])C(=O)C[C@@H](Cc1ccc(OCCN)cc1)C(=O)[*:1]; FITC = O=C1OC2(c3ccc(O)cc3Oc3cc(O)ccc32)c2ccc(NC(=S)*)cc21; PEG12 = NCCOCCOCCOCCOCCOCCOCCOCCOCCOCCOCCOCCOCCC(=O)O; NH(CH2CH2O)2CH2CH2NMe3+ = C[N+](C)(C)CCOCCOCCN*; Trp(7-Me) = Cc1cccc2c(C[C@H](N)C(=O)O)c[nH]c12; Hexanoyl(6-NMe3+) = C[N+](C)(C)CCCCCC(=O)*; C18 diacid = O=C(O)CCCCCCCCCCCCCCCCC(=O)*; X20 = CC(=O)CCCCC[C@H](N[*:1])C(=O)[*:2]; γGlu = O=C(O)[C@H](CCC(=O)[*:2])N[*:1]; 2Nal = N[C@@H](Cc1ccc2ccccc2c1)C(=O)O; AEF = NCCOc1ccc(C[C@H](N)C(=O)O)cc1; 3Pal = N[C@@H](Cc1cccnc1)C(=O)O; PEG4 = NCCOCCOCCOCCOCCC(=O)O; Pen = CC(C)(S)[C@H](N)C(=O)O; Thp = NC1(C(=O)O)CCOCC1; AEEA = NCCOCCOCC(=O)O; Sar = CNCC(=O)O
# How the values were obtained:
# IL-23R = molecular target: T1, IL-23R (Homo sapiens, UniProt Q5VWK5); test: IL23R Reporter Assay; assay type: cell-based; settings: HEK293 cells containing IL-23R, IL-12Rβ1 and STAT-inducible firefly luciferase reporter; 10 ng/mL IL-23 (EC90); 5 h
# T1 construct: HEK293 cells containing IL-23R, IL-12Rβ1 and a firefly luciferase reporter gene driven by a STAT-inducible promoter (Promega); host or cells: HEK293
# T1 sequence (Q5VWK5 24-629): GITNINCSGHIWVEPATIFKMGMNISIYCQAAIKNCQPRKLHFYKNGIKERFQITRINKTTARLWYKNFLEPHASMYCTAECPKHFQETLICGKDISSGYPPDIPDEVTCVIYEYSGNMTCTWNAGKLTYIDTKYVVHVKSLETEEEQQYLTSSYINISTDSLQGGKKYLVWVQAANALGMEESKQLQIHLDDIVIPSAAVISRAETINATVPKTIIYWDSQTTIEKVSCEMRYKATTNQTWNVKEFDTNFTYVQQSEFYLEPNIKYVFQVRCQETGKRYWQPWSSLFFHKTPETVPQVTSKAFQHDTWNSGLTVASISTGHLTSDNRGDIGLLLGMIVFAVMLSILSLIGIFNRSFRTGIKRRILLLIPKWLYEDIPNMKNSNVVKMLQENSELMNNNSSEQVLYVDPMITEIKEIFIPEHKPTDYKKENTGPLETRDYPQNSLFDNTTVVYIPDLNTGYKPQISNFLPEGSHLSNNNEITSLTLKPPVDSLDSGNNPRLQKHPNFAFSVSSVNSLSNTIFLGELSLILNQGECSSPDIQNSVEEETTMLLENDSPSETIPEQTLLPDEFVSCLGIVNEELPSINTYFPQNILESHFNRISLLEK
# Outline: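 HEK293 cells carrying IL-23R, IL-12Rβ1 and a STAT-driven firefly luciferase reporter (4000 cells/well) received compound, then 10 ng/mL IL-23 solution (EC90), and were incubated for 5 h at 37° C. BioGlo luminescence was normalised to IL-23 alone (0%) and 30 μM control inhibitor (100%). IC50 came from a 4-parameter Hill fit.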
# [1] = test system: IL-23-stimulated phosphorylated STAT3 in peripheral blood mononuclear cells (PBMCs); test: PBMC pSTAT3 Assay; assay type: cell-based; settings: PBMCs from healthy donors; 30 min preincubation with peptide; IL-23 5 ng/mL for 30 min; phospho-STAT3 by MSD
# Outline: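 Healthy-donor PBMCs expanded 4 days on anti-CD3 with 100 ng/mL IL-1β, starved ~4 h in RPMI-0.1% BSA, preincubated 30 min with peptide, then stimulated 30 min at 37 °C with 5 ng/mL IL-23. Lysate pSTAT3 measured by MSD phospho-STAT panel; IC50 derived.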
SMILES,IC50 (IL-23R) [nM],IC50 [1] [nM]
"CC(=O)CCCCC[C@@H]1NC(=O)[C@H](Cc2c[nH]c3c(C)cccc23)NC(=O)[C@H]([C@@H](C)O)NC(=O)[C@H](CC(N)=O)NC(=O)[C@@H](NC(C)=O)C(C)(C)SSC(C)(C)[C@@H](C(=O)N[C@@H](Cc2ccc(OCCN)cc2)C(=O)N[C@@H](CCC(=O)O)C(=O)N[C@@H](CC(N)=O)C(=O)N[C@@H](Cc2cccnc2)C(=O)N(C)CC(=O)N[C@@H](CCCCNC(=O)CCOCCOCCOCCOCCOCCOCCOCCOCCOCCOCCOCCOCCNC(=O)CC[C@H](NC(=O)CCCCCCCCCCCCCCCCC(=O)O)C(=O)O)C(N)=O)NC1=O [compound 161, MeCO-Pen(3)-N-T-7MeW-K(Ac)-Pen(3)-AEF-2Nal-THP-E-N-3Pya-Sar-K(PEG12gEC18OH)-CONH2] (Ac-[Pen]NT[Trp(7-Me)][X20][Pen][AEF]EN[3Pal][Sar]K([PEG12-γGlu-C18 diacid])-NH2; disulfide 1-6)",< 50,< 0.5
"CC(=O)NCCCC[C@@H]1NC(=O)[C@H](Cc2c[nH]c3c(C)cccc23)NC(=O)[C@H]([C@@H](C)O)NC(=O)[C@H](CC(N)=O)NC(=O)[C@@H](NC(C)=O)C(C)(C)SSC(C)(C)[C@@H](C(=O)C[C@@H](Cc2ccc(OCCN)cc2)C(=O)N[C@@H](Cc2ccc3ccccc3c2)C(=O)NC2(C(=O)N[C@@H](CCCCNC(=O)COCCOCCNC(=O)COCCOCCNC(=O)CC[C@H](NC(=O)CCCCCCCCCCCCCCCCC(=O)O)C(=O)O)C(=O)N[C@@H](CC(N)=O)C(=O)N[C@@H](Cc3cccnc3)C(=O)N(C)CC(=O)NCCOCCOCC[N+](C)(C)C)CCOCC2)NC1=O [compound 64, MeCO-Pen(3)-N-T-7MeW-K(Ac)-Pen(3)-AEF-2Nal-THP-K(PEG2PEG2gEC18OH)-N-3Pya-Sar-CONH(PEG3a)] (I: [2Nal][Thp]K([AEEA-AEEA-γGlu-C18 diacid])N[3Pal][Sar]-{NH(CH2CH2O)2CH2CH2NMe3+} / II: Ac-[Pen]NT[Trp(7-Me)]K(Ac); linker I:N-II:1-II:C via X19)",≥ 500,0.5 to 5
"CC(=O)NCCCC[C@@H]1NC(=O)[C@H](Cc2c[nH]c3c(C)cccc23)NC(=O)[C@H]([C@@H](C)O)NC(=O)[C@H](CC(N)=O)NC(=O)[C@@H](NC(=O)[C@@H](CCCNC(=N)N)NC(=O)CCOCCOCCOCCOCCNC(=S)Nc2ccc3c(c2)C(=O)OC32c3ccc(O)cc3Oc3cc(O)ccc32)C(C)(C)SSC(C)(C)[C@@H](C(=O)N[C@@H](Cc2ccc(OCCN)cc2)C(=O)N[C@@H](Cc2ccc3ccccc3c2)C(=O)NC2(C(=O)N[C@@H](CCC(=O)O)C(=O)N[C@@H](CC(N)=O)C(=O)N[C@@H](Cc3cccnc3)C(=O)N(C)CC(=O)N[C@@H](CCCCNC(=O)COCCOCCNC(=O)COCCOCCNC(=O)CC[C@H](NC(=O)CCCCCCCCCCCCCCCCC(=O)O)C(=O)O)C(N)=O)CCOCC2)NC1=O [compound 25, FITCPEG4CO-r-Pen(3)-N-T-7MeW-K(Ac)-Pen(3)-AEF-2Nal-THP-E-N-3Pya-Sar-K(PEG2PEG2gEC18OH)-CONH2] ({FITC-PEG4}-[dR][Pen]NT[Trp(7-Me)]K(Ac)[Pen][AEF][2Nal][Thp]EN[3Pal][Sar]K([AEEA-AEEA-γGlu-C18 diacid])-NH2; disulfide 2-7)",50 to 500,0.5 to 5
"CC(=O)NCCCC[C@@H]1NC(=O)[C@H](Cc2c[nH]c3c(C)cccc23)NC(=O)[C@H]([C@@H](C)O)NC(=O)[C@H](CCCCNC(=O)COCCOCCNC(=O)COCCOCCNC(=O)CC[C@H](NC(=O)CCCCCCCCCCCCCCCCC(=O)O)C(=O)O)NC(=O)[C@@H](NC(=O)[C@@H](CCCNC(=N)N)NC(=O)CCCCC[N+](C)(C)C)C(C)(C)SSC(C)(C)[C@@H](C(=O)N[C@@H](Cc2ccc(OCCN)cc2)C(=O)N[C@@H](Cc2ccc3ccccc3c2)C(=O)NC2(C(=O)N[C@@H](CCC(=O)O)C(=O)N[C@@H](CC(N)=O)C(=O)N[C@@H](Cc3cccnc3)C(=O)N(C)CC(N)=O)CCOCC2)NC1=O [compound 73, 5cpaCO-r-Pen(3)-K(PEG2PEG2gEC18OH)-T-7MeW-K(Ac)-Pen(3)-AEF-2Nal-THP-E-N-3Pya-Sar-CONH2] ({Hexanoyl(6-NMe3+)}-[dR][Pen]K([AEEA-AEEA-γGlu-C18 diacid])T[Trp(7-Me)]K(Ac)[Pen][AEF][2Nal][Thp]EN[3Pal][Sar]-NH2; disulfide 2-7)",50 to 500,< 0.5
